Key:
platelets = assay: Platelet stimulation and release of freeMitos, mitoMPs and MPs (hs-FCM); assay type: cell-based, human; conditions: platelets stimulated 4 hours at room temperature, vs supernatant from resting platelets, n=4
From the text: (§1) A forward scatter (FSC) coupled to a photomultiplier tube (PMT) “small particles option” (FSC-PMT) (rather than the usual diode) with a 488-nm solid state, 100-mW output blue laser (rather than the conventional 20 mW), a 633-nm HeNe, 20-mW output red laser, and a 405-nm solid state diode, 50-mW output violet laser were mounted on the BD FACS Canto II Special Order Research Product used for all our studies (BD Biosciences). The chosen parameters were optimal to detect particles from 100 to 3 500 nm simultaneously on the FSC-PMT.
(§2) Platelets were labeled with MitoTracker Deep Red™ and PKH67 Green Fluorescent Cell Linker as described above. Platelets were washed and then were left nonactivated or activated using heat-aggregated immunoglobulin (Ig)G (HA-IgG), 1 mg/mL; thrombin, 0.5 U/mL; collagen, 5 μg/mL; for 4 hours at room temperature. Platelets ([…]) were then diluted into […] phosphate-buffered saline (PBS) and analyzed by flow cytometry. For extracellular mitochondria release experiments, platelets were treated with cytochalasin B ([…]; Sigma-Aldrich), cytochalasin D ([…]; Sigma-Aldrich), cytochalasin E ([…]; Cayman Chemical), latrunculin A ([…]; Cayman Chemical), or nocodazole ([…]; Sigma-Aldrich). To process the data quantitatively, 100 000 polystyrene microspheres ([…] diameter; Polysciences) were added to each tube, and 1000 microspheres were acquired.

human neutrophils [1] = assay: NET quantification; assay type: cell-based
Experimental: Activated human neutrophils (5×10^6 cells/ml) were incubated in the presence of labeled mitochondria (5×10^5 mitochondria/ml, MitoTracker® Deep Red, 100 nm) and sPLA2-IIA (0.1 μg/ml) or diluent (PBS) for 2 h at 37° C. Cells were then fixed with 2% PFA and DNA staining was performed with Hoestch 33342 (1 μg/ml, Invitrogen). Cells were cytospinned on a slide at 500 RPM for 3 min. NET formation (%) was determined by the following equation: (NETs/PMN counted)*100. Preliminary experiments confirmed that mtDNA is readily distinguished from neutrophils NETs.

[2] = test system: thrombin-activated platelets; assay: Extracellular mitochondria release from thrombin-activated platelets with cytoskeleton inhibitors (hs-FCM); assay type: cell-based, human; conditions: addition of actin or tubulin polymerization inhibitors, n=4
From the text: as §1, §2

human neutrophils [3] = assay: Stimulation of neutrophils for leukotriene generation (5-LO products, HPLC); assay type: cell-based; conditions: human neutrophils with extracellular mitochondria and sPLA2-IIA; pyrrophenone 100 nM
Experimental: Human neutrophils were primed and stimulated for leukotriene biosynthesis as previously described (Cloutier et al. 2013, Flamand et al. 2006). To evaluate sPLA2-IIA mediated release of arachidonic acid, cPLA2α inhibitor pyrrophenone (100 nM) was added 5 min before stimulation. Stimulation was initiated by the addition of 5 μl of pre-treated mitochondria, or control, to prime neutrophils. The reaction was stopped by the addition of 500 μl of cold MeOH:CH3CN (1:1) containing 12.5 ng of prostaglandin B2 as internal standard. Samples were then processed and analyzed by reversed-phase high performance liquid chromatography using on-line extraction as previously described (Borgeat et al. 1990).

mitochondrial membranes = assay: Mass spectrometry of lysophospholipids and fatty acids released from mitochondrial membranes by sPLA2-IIA; assay type: biochemical, mouse; conditions: 0.1 and 1 μg/ml sPLA2-IIA, 37° C., 0.5 and 6 h
Experimental: Mitochondria were incubated in the presence of 0.1 μg/ml and 1 μg/ml of human recombinant sPLA2-IIA at 37° C. for 0.5 and 6 h. Mitochondria were also incubated in the absence of sPLA2-IIA to determine the content of basal free fatty acid. Following incubation, the reaction was stopped with the addition of 20 mM of EGTA. Lysophospholipid analysis by mass spectrometry was carried out as described (Bollinger et al. 2010). Samples of sPLA2-IIA-treated mitochondria (200 μl) was mixed with 800 μl of chloroform/methanol (2/1) followed by the addition of 15 μl of internal standard mixture (Bollinger et al. 2010 B). Samples were extracted as described and analyzed by combined liquid chromatography/tandem mass spectrometry (Bollinger et al. 2010). Fatty acids were analyzed by conversion to their AMPP amide derivatives and then analyzed by combined liquid chromatography/tandem mass spectrometry.

mitochondria [4] = assay: Mitochondrial DNA release after incubation with sPLA2-IIA (Sytox Green); assay type: biochemical, mouse; conditions: 0.2 mg/mL, 30 minutes at 37° C., n=6
Experimental: Mitochondria were seeded at 5×10^8 mitochondria/mL (Tyrode Buffer, pH 7.4, +5 mM CaCl2) in a flat bottom well plate (Costar, Corning). Human recombinant sPLA2-IIA (5 μg/ml) or diluent (PBS) was added and samples were then incubated for 30 min at 37° C. Nucleic acid stain Sytox® Green (2.5 μM, Invitrogen) was added to the mix and incubated for 10 min at room temperature. Fluorescence was obtained with a Tecan apparatus. To calculate the percentage of mitochondrial DNA released in the milieu, Triton X-100 (0.1% PBS) lysis of an equivalent amount of mitochondria (5×10^8 mitochondria/ml) was performed, to determine the total amount of mitochondrial DNA present per well.

mitochondria [5] = assay: sPLA2-IIA binding to mitochondria (flow cytometry, anti-TOM22 co-elution and immunoblot); set-up: species or system mouse; conditions: 30 min on ice, 5 mM CaCl2
Experimental: Mitochondria (10^6) from mouse liver were labeled with 100 nM of MitoTracker® Deep Red and incubated with 10 ng of sPLA2-IIA Alexa Fluor 488 (final volume 10 μl) in HBSS with 5 mM of CaCl2 for 30 min on ice. Samples were diluted and the presence of sPLA2-IIA Alexa Fluor 488 on fluorescent mitochondria was analyzed by flow cytometry.
Interaction between mitochondria and sPLA2-IIA was also assessed by immunolabeling and co-elution. Unstained mouse liver mitochondria (10^7) in HBSS with 5 mM CaCl2 were incubated with 250 ng of sPLA2-IIA (final volume 100 μl) for 30 min on ice. Anti-TOM22 microbeads labeling was then performed as described above and processed on a magnet for mitochondria isolation. Mitochondria were then pelleted and lysed in 1× lysis buffer. Samples were electrophoresed, transferred onto membranes and incubated in 0.2% milk/TBS-Tween solution containing rabbit anti-sPLA2-IIA antibody (1/1000, Cayman Chemical) for 48 h at 4° C. The membrane was washed, treated with Peroxidase-AffiniPure anti-rabbit-IgG (Jackson ImmunoResearch) and reactive proteins were visualized by chemiluminescence (Perkin Elmer).

[6] = test system: freshly isolated human neutrophil; assay: Scanning electron microscopy of human neutrophils with mitochondria and sPLA2-IIA; assay type: cell-based; conditions: mitochondria with human neutrophils, 30-minute incubation with sPLA2-IIA; n=3
Experimental: (§3) Samples were fixed with 2.5% glutaraldehyde for at least 24 h then processed for standard dehydration. Briefly, samples were first washed (3×10 min) with sodium cacodylate buffer (0.1 M, pH 7.3) then fixed with osmium tetroxide (1% in sodium cacodylate buffer) for 90 min. Samples were washed again (3×10 min) in sodium cacodylate buffer and subsequently processed for alcohol dehydration steps (50, 70, 95 and 100% EtOH, 10 min each steps). Samples were then dipped in 100% EtOH for 40 and 10 min, and air-dried overnight. Samples were then coated with palladium and observed with a JEOL 6360LV scanning electron microscope (Tokyo, Japan).

C57BL/6N mice = assay: Air pouch model, cytokine production; assay type: in vivo, mouse; conditions: injected into the air pouch of C57BL/6N mice, 4 hours; n=7
Experimental: Briefly, sterile air was subcutaneous injected on days 0 and 3. Tumor necrosis factor-α (50 ng) was injected into the pouch on day 6. On day 7, mitochondrial membrane hydrolysis products ([…] of 5×10^8 mitochondria treated with sPLA2-IIA), diluent (PBS), sPLA2-IIA, or mitochondria alone were injected in the air pouch. After 4 hours, the air pouch was washed with 1.2 mL PBS. Cytokines were quantified using the BD Cytometric Bead Array System (CBA) (BD Biosciences) by flow cytometry on a BD FACS Canto II and analyzed using FCAP Array Software v3.0.

mitochondria [7] = assay: Scanning electron microscopy of mitochondria incubated with sPLA2-IIA; set-up: species or system mouse; conditions: scanning electron micrographs
Experimental: as §3

In the case of `CCCCCCCCCCCCCC(=O)O[C@@H]1[C@@H](C)[C@@]2(O)[C@@H](C=C(CO)C[C@]3(O)C(=O)C(C)=C[C@@H]23)[C@@H]2C(C)(C)[C@]12OC(C)=O` [PMA, phorbol 12-myristate 13-acetate], the “release of extracellular freeMitos, mitoMPs and MPs” value (“release of extracellular freeMitos” for short) (platelets) is reported as “trigger the release”.

In the case of `CCCCC/C=C\C/C=C\C/C=C\C/C=C\CCCC(=O)O` [arachidonic acid], the “inducing NETosis (hydrolytic products derived from sPLA2-IIA activity)” value (human neutrophils [1]; human neutrophils) is reported as “highly potent”.

In the case of `C=C1[C@@H](C)[C@H]2[C@H](Cc3ccccc3)NC(=O)[C@]23OC(=O)/C=C/[C@H](O)CCC[C@@H](C)C/C=C/[C@H]3[C@@H]1O` [cytochalasin B], the “Mitochondrial release (freeMito, mitoMPs, MPs) from thrombin-activated platelets” value [2] is reported as “significantly reduced”.

In the case of `C=C1[C@@H](C)[C@H]2[C@H](Cc3ccccc3)NC(=O)[C@]23[C@H](OC(C)=O)/C=C/[C@@](C)(O)C(=O)[C@@H](C)C/C=C/[C@H]3[C@@H]1O` [cytochalasin D], the “Mitochondrial release (freeMito, mitoMPs, MPs) from thrombin-activated platelets” value [2] is reported as “significantly reduced”.

In the case of `C[C@H]1C/C=C/[C@H]2[C@@H]3O[C@]3(C)[C@@H](C)[C@H]3[C@H](Cc4ccccc4)NC(=O)[C@]32OC(=O)O/C=C/[C@@](C)(O)C1=O` [cytochalasin E], the “Mitochondrial release (freeMito, mitoMPs, MPs) from thrombin-activated platelets” value [2] is reported as “significantly reduced”.

`C/C1=C/C(=O)O[C@@H]2C[C@@H](CC[C@H](C)/C=C\C=C\CC1)O[C@@](O)([C@@H]1CSC(=O)N1)C2` [latrunculin A] was tested, and the “Mitochondrial release (freeMito, mitoMPs, MPs) from thrombin-activated platelets” value [2] was “significantly reduced”.

`O=C1NC(=O)/C(=C/c2ccc(C(=O)NC[C@@H]3C[C@@H](SC(c4ccccc4)(c4ccccc4)c4ccccc4)CN3C(=O)c3ccccc3C(=O)c3ccc(F)cc3F)cc2)S1` [pyrrophenone] was tested, and the “LTB4 production (5-LO products) by neutrophils” value (human neutrophils [3]) was “takes place even in presence”.

For collagen, the “release of extracellular freeMitos” value (platelets) was “trigger the release”.

thrombin was tested, and the “release of extracellular freeMitos” value (platelets) was “trigger the release”.

B1: sPLA2-IIA: human recombinant secreted phospholipase A2 group IIA (protein, UniProt P14555 21-144, looked up)
Phospholipase A2, membrane …: NLVNFHRMIKLTTGKEAALSYGFYGCHCGVGGRGSPKDATDRCCVTHDCCYKRLEKRGCGTKFLSYKFSNSGSRITCAKQDSCRSQLCECDKAAATCFARNKTTYNKKYQYYSNKHCRGSTPRC
With B1 the “release of lysophospholipids and free fatty acids from mitochondria” value (mitochondrial membranes) was “release of various lysophospholipids and free fatty acids”, the mtDNA extrusion (mitochondria [4]) was “amplified” and the “binding of sPLA2-IIA to mitochondria” value (mitochondria [5]) was “binds mitochondria”. For the same molecule, the neutrophil structural change [6] was 29.2±2.11%, the “NET formation by mitochondria” value (human neutrophils [1]; human neutrophils with mitochondria, sPLA2-IIA 0.1 μg/ml, 2 h at 37° C.) was “significantly enhances” and the “LTB4 production (5-LO products) by neutrophils” value (human neutrophils [3]) was “copious amounts”. For the same molecule, the “production of IL-1b and IL-6” value (C57BL/6N mice) was “modest cytokine production” and the mitochondrial structural integrity (mitochondria [7]) was “severely affects mitochondrial structural integrity”.

Reference: patent US9945853B2, “Extracellular mitochondrial components for detecting inflammatory reactions and conditions” (UNIVERSITE LAVAL, priority 2013, dated 2018)
